The values that follow come from US20230372355A1 (AXSOME THERAPEUTICS, INC., priority 2022, published 2023).

Series [1] relates to patients with moderate and severe migraine and a history of inadequate response to prior acute treatments. Nature of the series: Phase 3 randomized, double-blind, placebo- and active-controlled trial, acute treatment of moderate and severe migraine (Example 1), efficacy. Type of series: in vivo, human.
Description: Exclusion criteria included cluster headaches or other types of migraines, chronic daily headache 15 non-migraine headache days per month), history of significant cardiovascular disease, and uncontrolled hypertension.
The test system of series [2] is patients with moderate and severe migraine. As to conditions: human, in vivo.

Take `CN(C)CCc1c[nH]c2ccc(Cn3cncn3)cc12` [rizatriptan, Rizatriptan]: the “percentage of patients experiencing sustained pain relief from 2 hours to 24 hours after dosing” value in series [1] (2-24 hours) came to 43.9%. Further, the “proportion of patients with sustained pain freedom from 2 hours to 48 hours” value in series [1] (2-48 hours) came to 8.8%. Besides, in series [1] ([…] after dosing), the “proportion of patients experiencing pain relief […] after dosing” value is 52.5%. In addition, in series [2], the “Any Treatment-Emergent Adverse Event, % of subjects” value amounted to 15.4%; the “Any Treatment-Emergent Adverse Event, number of subjects” value worked out at 67; the “Dizziness, % of subjects” value stood at 2.1%; the “Dizziness, number of subjects” value came out at 9. In series [2], the “Nausea, % of subjects” value worked out at 4.8%; the “Nausea, number of subjects” value was determined as 21; the “Somnolence, % of subjects” value worked out at 2.1%; the “Somnolence, number of subjects” value is given as 9.
